We go through 43 molecules from ChEMBL document CHEMBL4651402, “Screening of ~5500 FDA-approved drugs and clinical candidates for anti-SARS-CoV-2 activity” (2021).

The subject of this assay is SARS-CoV-2. Nature of the assay: microbe, parasite or virus in culture. The settings on record: Severe acute respiratory syndrome coronavirus 2, Vero C1008, 48 h.

The structures appear in SMILES notation.

Consider `COc1cccc(OC)c1C(=O)N[C@@H]1C(=O)N2[C@@H]1SC(C)(C)[C@@H]2C(=O)O` [METHICILLIN], for which the IC50 was greater than 20 µM. Where the note is “read-out: pIC50 (converted)”, the IC50 is greater than 20 µM.
As to `C/C=C/C[C@@H](C)[C@@H](O)[C@H]1C(=O)N[C@@H](CC)C(=O)N(C)CC(=O)N(C)[C@@H]([C@@H](C)CC)C(=O)N[C@@H](C(C)C)C(=O)N(C)[C@@H](CC(C)C)C(=O)N[C@@H](C)C(=O)N[C@H](C)C(=O)N(C)[C@@H](CC(C)C)C(=O)N(C)[C@@H](CC(C)C)C(=O)N(C)[C@@H](C(C)C)C(=O)N1C` [NIM811], the IC50 was greater than 20 µM. Where the note is “read-out: pIC50 (converted)”, the IC50 is greater than 20 µM.
With `CNC(=O)c1ccc2cc([C@]3(O)CCn4cncc43)ccc2c1`, the IC50 was greater than 20 µM. Also, the IC50 (read-out: pIC50 (converted)) was greater than 20 µM.
Consider `NC[C@@H]1OB(O)c2c(OCCCO)cccc21`, for which the IC50 was greater than 20 µM. Besides, under “read-out: pIC50 (converted)”, the IC50 is greater than 20 µM.
Molecule `CC(C)/N=c1\cc2n(-c3ccc(Cl)cc3)c3ccccc3nc-2cc1Nc1ccc(Cl)cc1` [CLOFAZIMINE] displayed an IC50 greater than 20 µM. Moreover, the IC50 (read-out: pIC50 (converted)) was greater than 20 µM.
Regarding `CC(=O)OCC(=O)[C@@]12OC3(CCCC3)O[C@@H]1C[C@H]1[C@@H]3CCC4=CC(=O)C=C[C@]4(C)[C@@]3(F)[C@@H](O)C[C@@]12C` [AMCINONIDE], the IC50 is greater than 20 µM. Besides, the IC50 (read-out: pIC50 (converted)) was greater than 20 µM.
`O=c1cc(-c2ccc(O)cc2)oc2c(C3O[C@H](CO)[C@@H](O)[C@H](O)[C@H]3O)c(O)cc(O)c12` (stereo partly specified) had an IC50 greater than 20 µM. For the same molecule, the IC50 (read-out: pIC50 (converted)) is greater than 20 µM.
Molecule `NC(Cc1ccc(Cl)cc1)C(=O)O` (racemic) [FENCLONINE] showed an IC50 greater than 20 µM. For the same molecule, the IC50 (read-out: pIC50 (converted)) was greater than 20 µM.
`Cc1nc2n(c(=O)c1CCN1CCC(c3noc4cc(F)ccc34)CC1)CCC[C@@H]2O` registered an IC50 greater than 20 µM. Moreover, the IC50 (read-out: pIC50 (converted)) was greater than 20 µM.
`c1cc2c(cc1[C@H]1OC[C@H]3[C@@H]1CO[C@@H]3c1ccc3c(c1)OCO3)OCO2` [SESAMIN] registered an IC50 greater than 20 µM. Besides, the IC50 (read-out: pIC50 (converted)) is greater than 20 µM.
The molecule `CC12CCC3C4CCC(O)CC4=CCC3C1CCC2O` (stereo unspecified) yielded an IC50 greater than 20 µM. The IC50 (read-out: pIC50 (converted)) was greater than 20 µM.
Molecule `CC(=O)[C@H]1CC[C@H]2[C@@H]3CC=C4C[C@@H](OS(=O)(=O)O)CC[C@]4(C)[C@H]3CC[C@]12C` displayed an IC50 greater than 20 µM. Further, the IC50 (read-out: pIC50 (converted)) was greater than 20 µM.
`C[Si](C)(C)c1cccc(C(=O)C(F)(F)F)c1`: the IC50 was greater than 20 µM. Besides, the IC50 (read-out: pIC50 (converted)) was greater than 20 µM.
The molecule `Cc1nc(COc2ccc(C[C@H](NC(=O)O[C@H]3CO[C@H]4OCC[C@H]43)[C@H](O)CN(CC(C)C)S(=O)(=O)c3ccc4c(c3)OCO4)cc2)cs1` [BRECANAVIR] had an IC50 greater than 20 µM. For the setting “read-out: pIC50 (converted)”, the IC50 was greater than 20 µM.
Molecule `CN1CCC(=C2c3ccccc3CCc3cccnc32)CC1` [AZATADINE] yielded an IC50 greater than 20 µM. Besides, the IC50 (read-out: pIC50 (converted)) was greater than 20 µM.
Turning to `C[C@@H](c1ncncc1F)[C@](O)(Cn1cncn1)c1ccc(F)cc1F` [VORICONAZOLE], the IC50 is greater than 20 µM. Besides, the IC50 (read-out: pIC50 (converted)) was greater than 20 µM.
For the molecule `O=[N+]([O-])c1cc([As](=O)(O)O)ccc1O` [ROXARSONE], the IC50 was greater than 20 µM. Under “read-out: pIC50 (converted)”, the IC50 is greater than 20 µM.
`O=C(COc1ccc(Cl)cc1)N1CCN(Cc2ccc3c(c2)OCO3)CC1` [FIPEXIDE]: the IC50 is greater than 20 µM. Further, for the setting “read-out: pIC50 (converted)”, the IC50 was greater than 20 µM.
Turning to `c1ccc2[nH]c(-c3nc4ccccc4[nH]3)nc2c1`, the IC50 was greater than 20 µM. The IC50 (read-out: pIC50 (converted)) was greater than 20 µM.
Consider `O=C(O)CCCc1ccccc1` [PHENYLBUTANOIC ACID], for which the IC50 was greater than 20 µM. Also, where the note is “read-out: pIC50 (converted)”, the IC50 is greater than 20 µM.
The molecule `CCCc1nc(C(C)(C)O)c(C(=O)O)n1Cc1ccc(-c2ccccc2-c2nnn[nH]2)cc1` [OLMESARTAN] gave an IC50 greater than 20 µM. Further, for the setting “read-out: pIC50 (converted)”, the IC50 is greater than 20 µM.
Regarding `c1cnc2c(c1)CNC2` [6,7-DIHYDRO-5H-PYRROLO[3,4-B]PYRIDINE], the IC50 was greater than 20 µM. The IC50 (read-out: pIC50 (converted)) was greater than 20 µM.
`COc1cc2c(c(OC)c1OC)-c1ccc(O)c(=O)cc1C(N)CC2` (stereo unspecified) came in with an IC50 greater than 20 µM. The IC50 (read-out: pIC50 (converted)) is greater than 20 µM.
The molecule `O=C(CN1CCNCC1)NC1CCCCC1` [ESAPRAZOLE] returned an IC50 greater than 20 µM. Also, the IC50 (read-out: pIC50 (converted)) was greater than 20 µM.
In the case of `COc1cc(=O)n(C)c2c(OCC(O)C(C)(C)O)cccc12` (stereo unspecified), the IC50 is greater than 20 µM. Besides, the IC50 (read-out: pIC50 (converted)) was greater than 20 µM.
As to `CN1CCN(c2cc3c(cc2F)c(=O)c(C(=O)O)cn3-c2ccc(F)cc2)CC1` [DIFLOXACIN], the IC50 was greater than 20 µM. The IC50 (read-out: pIC50 (converted)) is greater than 20 µM.
`Cc1cc(C2CCCCC2)n(O)c(=O)c1` [CICLOPIROX] had an IC50 greater than 20 µM. In addition, the IC50 (read-out: pIC50 (converted)) is greater than 20 µM.
`CCCCOc1cc(CC2CNC(=O)N2)ccc1OC` (stereo unspecified) [RO-201724] came in with an IC50 greater than 20 µM. Moreover, the IC50 (read-out: pIC50 (converted)) is greater than 20 µM.
In turn, `NC(N)=NOCC[C@H](N)C(=O)O` [CANAVANINE] registered an IC50 greater than 20 µM. In addition, the IC50 (read-out: pIC50 (converted)) was greater than 20 µM.
The molecule `CCCC(=O)O[C@]1(C(=O)CCl)C(C)CC2C3CCC4=CC(=O)C=CC4(C)[C@@]3(F)C(=O)CC21C` (stereo partly specified) yielded an IC50 greater than 20 µM. Also, where the note is “read-out: pIC50 (converted)”, the IC50 was greater than 20 µM.
In turn, `CN1[C@@H]2CC(=O)C[C@H]1[C@H](O)C2` yielded an IC50 greater than 20 µM. Where the note is “read-out: pIC50 (converted)”, the IC50 is greater than 20 µM.
With `CC[C@H]1/C=C\C=C/C[C@@H](C)[C@H](O)[C@@](C)(O)C(=O)[C@@H](C)[C@H](O)[C@@H](C)C(=O)[C@@H](C)[C@H](O)[C@@H](C)/C=C\C(=O)O[C@@H]2[C@@H](C)[C@H](CC1)O[C@]1(CC[C@H](C)[C@H](C[C@@H](C)O)O1)[C@H]2C`, the IC50 was greater than 20 µM. The IC50 (read-out: pIC50 (converted)) is greater than 20 µM.
The molecule `Cn1cc(-c2cnn3c(N)c(Br)c([C@@H]4CCCNC4)nc23)cn1` [SCH-900776] showed an IC50 greater than 20 µM. For the same molecule, the IC50 (read-out: pIC50 (converted)) was greater than 20 µM.
Regarding `CCCCCCCCCCCCCCC1(C(=O)O)CO1` (stereo unspecified) [PALMOXIRATE], the IC50 is greater than 20 µM. Further, under “read-out: pIC50 (converted)”, the IC50 was greater than 20 µM.
Consider `C[N+](C)(C)CC(O)CC(=O)[O-]` (stereo unspecified) [CARNITINE], for which the IC50 was greater than 20 µM. The IC50 (read-out: pIC50 (converted)) is greater than 20 µM.
The molecule `CC(C)CCCC(C)C1CCC2C3CC(O)[C@@]4(O)CC(O)CCC4(C)C3CCC12C` (stereo partly specified) yielded an IC50 greater than 20 µM. Moreover, the IC50 (read-out: pIC50 (converted)) is greater than 20 µM.
`CCc1nc(-c2cccc(C)c2)c(-c2ccnc(NC(=O)c3ccccc3)c2)s1` [TAK-715] yielded an IC50 greater than 20 µM. Besides, under “read-out: pIC50 (converted)”, the IC50 is greater than 20 µM.
`CC(=O)O[C@]1(C(C)=O)CCC2C3C[C@H](C)C4=CC(=O)CCC4(C)C3CCC21C` (stereo partly specified): the IC50 was greater than 20 µM. In addition, for the setting “read-out: pIC50 (converted)”, the IC50 is greater than 20 µM.
As to `CCCCCC(C)(O)/C=C/C1CCC(=O)C1CCCCCCC(=O)O` (stereo unspecified), the IC50 was greater than 20 µM. The IC50 (read-out: pIC50 (converted)) is greater than 20 µM.
`CN(C)CCn1nnnc1SCC1=C(C(=O)O)N2C(=O)[C@@H](NC(=O)Cc3csc(N)n3)[C@H]2SC1` [CEFOTIAM] showed an IC50 greater than 20 µM. Besides, under “read-out: pIC50 (converted)”, the IC50 was greater than 20 µM.
`O=C(OCCN1CCCCCC1)C(c1ccsc1)C1CCCCC1` (stereo unspecified) displayed an IC50 greater than 20 µM. Further, the IC50 (read-out: pIC50 (converted)) was greater than 20 µM.
As to `C[C@]12C=CC(=O)C=C1CC[C@@H]1[C@@H]2[C@@H](O)C[C@@]2(C)[C@H]1CC[C@]2(O)C(=O)CO` [PREDNISOLONE], the IC50 is greater than 20 µM. In addition, the IC50 (read-out: pIC50 (converted)) was greater than 20 µM.
Take `CCC(C)C(C(=O)OC1CCN(C)CC1)c1ccccc1` (stereo unspecified) [PENTAPIPERIDE]: the IC50 is greater than 20 µM. Further, the IC50 (read-out: pIC50 (converted)) was greater than 20 µM.
